According to publication PMC9181987, “Disclosing the Potential of Fluorinated Ionic Liquids as Interferon-Alpha 2b Delivery Systems” (Nanomaterials, 2022):
Read-outs that look alike come from different tables or passages of the source.

What was measured:
[1] = Dynamic light scattering: aggregate size and polydispersity index; format: physicochemical; settings: 150 mM NaH2PO4, 25°C
Procedure: These concentrations were chosen to comprise two different aggregates of each FIL, above the 1st CAC and the 3rd CAC. […] Therefore, 20 μL was transferred into a quartz cell of 10 mm pathlength and measured at 25 °C.
Moreover, the polydispersity index (PdI) was obtained by DLS which determines the heterogeneity of the sample in the function of the size.

[2] = Tensiometry (Du Noüy ring): surface tension breakpoints, surface properties, critical packing parameters; format: physicochemical; settings: 25°C
Procedure: The force tensiometer is equipped with a platinum Du Noüy ring to surface tension measurement and a thermostatic vessel connected to a bath circulator (RW-0535G, Lab. Companion, Daejeon, Republic of Korea) in order to keep the temperature of the solution constant. Next, 15 mL of each sample was placed in a glass container and left to equilibrate in the thermostatic vessel. After temperature equilibration, the surface tension was measured. The equipment is a standalone-controlled instrument, and the calibration was conducted with a calibration weight with a known mass before measuring the samples. Each sample was measured five times, and the reported surface tension was the average value with an uncertainty of ±0.22 mN/m. Each solution was then assessed by a KSV’s contact angle goniometer CAM100 (Biolin Scientific, Gothenburg, Sweden). A drop of each solution was placed on a Teflon surface with a Hamilton syringe. This equipment is a PC-controlled instrument, and the tilt was set to 0 degrees at the base of the drop and was recorded for 10 frames with an interval of 1 s. The contact angle was calculated for the left and right sides of the drop and the mean value was the resulting contact angle. At least five different drops of each solution were recorded, and the reported contact angle was the resulting average with an uncertainty of ±5%.
After the evaluation of the CACs, other properties can be taken from the surface tension data. […] The n parameter is deduced from the degree of ionization of aggregates, α, as n = 2 − α, determined from the conductivity profile of the FIL and assumed to be the same for the surface layer in ionic surfactants.
From the Γmax and Avogadro’s number (NA) the minimum area occupied per surfactant molecule at the air/water interface, Amim, can be obtained as set by:(4) Amin=10^18/NAΓmax
In addition, the parameter that explains the efficacy of a surfactant to reduce the surface tension, ΠCAC, was determined, expressing the maximum surface tension diminution resulting from the dissolution of surfactant molecules. This parameter is determined by the surface tension of the solvent ( γ0 ) and the γCAC , as follows:(5) ΠCAC=γ0−γCAC
Them, from ΠCAC, the standard free energy of adsorption, ΔGad0 , was calculated using the following equation [55]:(6) ΔGad0=ΔGagg0−ΠCAC/Γmax
Finally, aiming to disclose information on the self-aggregation process and the shape of the aggregates, the critical packing parameter, P, was also calculated in this work, as follows:(7) P=V0/Aminlc where V0 and lc are the volume occupied by the hydrophobic chains in the aggregate core and the critical chain length, respectively. The structure of the aggregates is defined as spherical when P ≤ 0.33, cylindrical for P ≤ 0.5, lamellar when P ≤ 1, and inverted for P > 1 [38].

[3] = set-up: method as in earlier work; settings: 25°C, ref [1], cited from earlier work
[4] = set-up: method as in earlier work; settings: Water, 25°C, ref [1]; cited from earlier work
[5] = cited from earlier work
IFN-α 2b = molecular target: T1, IFN-α 2b (Homo sapiens, UniProt P01563); experiment: Intrinsic fluorescence spectroscopy of IFN-α 2b with FILs (λmax shift, Stern–Volmer quenching); format: binding
T1 construct: purchased Sigma-Aldrich SRP4595; host or cells: E. coli
T1 sequence (P01563 24-188): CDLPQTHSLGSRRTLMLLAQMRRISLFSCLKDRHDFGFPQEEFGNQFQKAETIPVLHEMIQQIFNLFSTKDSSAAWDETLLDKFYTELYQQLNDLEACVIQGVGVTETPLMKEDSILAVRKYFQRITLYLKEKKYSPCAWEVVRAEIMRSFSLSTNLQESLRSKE
Procedure: The concentrations were chosen to cover the range where the different aggregates of the FILs are formed. Samples, equilibrated for 30 min at room temperature, and 400 μL of each solution were transferred to a quartz cuvette of 10 mm pathlength and excited at 280 nm, collecting the fluorescence intensity in a wavelength range of 300 to 450 nm. The width of the excitation and emission slit was set to 5 nm for both cases. The spectra of FIL solutions (blanks) were discounted to the spectra of FIL + protein samples to avoid any possible effect of FIL concentration increment in the fluorescence intensity.
A very well-known equation, the Stern–Volmer, was used to characterize the quenching occurring in this region. This equation characterizes the collisional quenching that can occur when the excited state of the fluorophore is disabled due to contact with another molecule (quencher), without chemical alteration. Therefore, the collisional quenching is described by:(11) F0/F=1+K[Q]=1+kqτ0[Q] where F0 and F are the fluorescence intensities of the fluorophore in the absence and presence of the quencher, respectively, K is the Stern–Volmer quenching constant, kq is the biomolecular quenching constant, τ0 is the unquenched lifetime, and [Q] is the quencher concentration. […] This value gives information on the sensitivity of the fluorophore to a quencher.

[6] = 5 μg/mL IFN-α 2b + 5 mM NaH2PO4 (pH=7.4), 1st breakpoint
[7] = 5 μg/mL IFN-α 2b + 5 mM NaH2PO4 (pH=7.4), 2nd breakpoint
[8] = 5 μg/mL IFN-α 2b + 5 mM NaH2PO4 (pH=7.4), 3rd breakpoint
[9] = 5 μg/mL IFN-α 2b + 5 mM NaH2PO4 (pH=7.4), 4th breakpoint

## CCn1cc[n+](C)c1.O=S(=O)([O-])C(F)(F)C(F)(F)C(F)(F)C(F)(F)F [[C2C1Im][C4F9SO3], 1-Ethyl-3-methylimidazolium perfluorobutanesulfonate]
[1]; 29.3 mM FIL
  Polydispersity index (PdI): 1.000
[1]; 243.8 mM FIL
  Polydispersity index (PdI): 0.157
[2]; [6]
  CAC (wFIL), tensiometer: 0.0008
  CAC, tensiometer: 1.963 mmol⸱kg-1
  surface tension at CAC, γCAC: 51.4 mN m-1
[2]; [7]
  CAC (wFIL), tensiometer: 0.0025
  CAC, tensiometer: 6.105 mmol⸱kg-1
  surface tension at CAC, γCAC: 48.2 mN m-1
[2]; [8]
  CAC (wFIL), tensiometer: 0.0089
  CAC, tensiometer: 21.61 mmol⸱kg-1
  surface tension at CAC, γCAC: 38.3 mN m-1
[2]; [9]
  10^6 Γmax, maximum surface excess concentration: 4.41 mol m-2
  Amin, minimum area per surfactant molecule at the air/water interface: 0.38 nm2
  CAC (wFIL), tensiometer: 0.0335
  CAC, tensiometer: 81.59 mmol⸱kg-1
  critical packing parameter Peq 8: 0.7439
  critical packing parameter Peq 9: 0.7481
  surface tension at CAC, γCAC: 24.3 mN m-1
  ΔG0ad, standard free energy of adsorption: -7.734 kcal/mol
  ΠCAC, efficacy to reduce the surface tension: 37.8 mN m-1
[2]; 5 mM NaH2PO4 (pH=7.4)
  10^6 Γmax, maximum surface excess concentration: 3.26 mol m-2
  Amin, minimum area per surfactant molecule at the air/water interface: 0.51 nm2
  CAC (wFIL), tensiometer: 0.0330
  CAC, tensiometer: 80.35 mmol⸱kg-1
  critical packing parameter Peq 8: 0.550
  critical packing parameter Peq 9: 0.553
  surface tension at CAC, γCAC: 24.6 mN m-1
  ΔG0ad, standard free energy of adsorption: -9.8 kcal/mol
  ΠCAC, efficacy to reduce the surface tension: 46.4 mN m-1
[3]
  Amin, minimum area per surfactant molecule at the air/water interface: 0.64 nm2
[3]; Water
  10^6 Γmax, maximum surface excess concentration: 2.60 mol m-2
  CAC (wFIL), tensiometer: 0.0375
  CAC, tensiometer: 91.39 mmol⸱kg-1
  critical packing parameter Peq 8: 0.439
  critical packing parameter Peq 9: 0.442
  surface tension at CAC, γCAC: 24.5 mN m-1
  ΔG0ad, standard free energy of adsorption: -10.6 kcal/mol
  ΠCAC, efficacy to reduce the surface tension: 44.4 mN m-1
[4]
  First CAC: 14.55 mmol/kg
  First CAC (wFIL): 0.0060
  Gibbs free energy of aggregation ΔG0agg, First CAC: -5.9 kcal/mol
  Gibbs free energy of aggregation ΔG0agg, Second CAC: -4.97 kcal/mol
  Gibbs free energy of aggregation ΔG0agg, Third CAC: -6.57 kcal/mol
  Second CAC: 38.54 mmol/kg
  Second CAC (wFIL): 0.0158
  Third CAC: 81.03 mmol/kg
  Third CAC (wFIL): 0.0332
  ionization degree α, First CAC: 0.79
  ionization degree α, Second CAC: 0.84
  ionization degree α, Third CAC: 0.29
[5]
  toxicity: negligible toxicity
IFN-α 2b; IFN-α 2b 20 μg/mL, region ~14 mM to ~110 mM FIL, 5 mM NaH2PO4 pH 7.4, excitation 280 nm
  Stern–Volmer quenching constant K: 0.0106 mM⁻¹
IFN-α 2b; from K and τ0 of IFN-α 2b
  biomolecular quenching constant kq: 3.59e+09 M⁻¹ s⁻¹
